Where “and” joins values, the source holds several entries; their conditions need not be identical. Equal entries are not always repeated. Toxic doses and inconclusive results are not listed.

Here are results for 19 compounds from PubChem BioAssay AID256 (DTP/NCI, 2004).

The subject of the test is CD2F1 mice, L1210 leukemia ip, survival T/C. In words: NCI In Vivo Anticancer Drug Screen. Data for tumor model L1210 Leukemia (intraperitoneal) in CD2F1 (CDF1) mice. Particulars: higher = longer survival. The gist of the method: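 Implant tumor; dose compound or vehicle; measure endpoint in both groups; report treated divided by control.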
Setting [1] is: endpoint: mean survival time, dose: 100.0 mg/kg/injection, schedule: Q01DX001 (ip), vehicle: saline with Tween-80.
The mark [2] stands for this setting: endpoint: mean survival time, dose: 200.0 mg/kg/injection, schedule: Q01DX001 (ip), vehicle: saline with Tween-80.
[3] abbreviates: endpoint: mean survival time, dose: 400.0 mg/kg/injection, schedule: Q01DX001 (ip), vehicle: saline with Tween-80.
Setting [4] is: endpoint: mean survival time, dose: 100.0 mg/kg/injection, schedule: Q04DX003 (ip), vehicle: saline.
Setting [5] is: endpoint: mean survival time, dose: 200.0 mg/kg/injection, schedule: Q04DX003 (ip), vehicle: saline.
Where [6] appears, read: endpoint: mean survival time, dose: 75.0 mg/kg/injection, schedule: Q01DX001 (ip), vehicle: saline.
Where [7] appears, read: endpoint: mean survival time, dose: 150.0 mg/kg/injection, schedule: Q01DX001 (ip), vehicle: saline.

Consider `Cc1cc(N(CC(C)Br)CC(C)Br)ccc1N=Nc1ccccc1C(=O)O` (stereo not given), for which the T/C is 105 % of control and 112 % of control (endpoint: mean survival time, dose: 3.13 mg/kg/injection, schedule: Q01DX009 (ip), vehicle: saline with Tween-80); 106 % of control (endpoint: mean survival time, dose: 6.25 mg/kg/injection, schedule: Q01DX009 (ip), vehicle: Klucel (hydroxypropylcellulose) (HPC)); 114 % of control and 117 % of control and 109 % of control (endpoint: mean survival time, dose: 6.25 mg/kg/injection, schedule: Q01DX009 (ip), vehicle: saline with Tween-80); 119 % of control (endpoint: mean survival time, dose: 25.0 mg/kg/injection, schedule: Q01DX009 (ip), vehicle: Klucel (hydroxypropylcellulose) (HPC)); 86 % of control (endpoint: mean survival time, dose: 25.0 mg/kg/injection, schedule: Q01DX009 (ip), vehicle: saline with Tween-80).
For the compound `FC(F)(F)C(F)(F)CI`, the T/C under setting [1] is 105 % of control, the T/C under setting [2] was 98 % of control and the T/C under setting [3] was 94 % of control.
As for `CC[P+]1(c2ccccc2)CCCc2ccc3ccccc3c21` (stereo not given), the T/C was 117 % of control (endpoint: mean survival time, dose: 12.5 mg/kg/injection, schedule: Q04DX003 (ip), vehicle: saline) and 110 % of control (endpoint: mean survival time, dose: 25.0 mg/kg/injection, schedule: Q04DX003 (ip), vehicle: saline).
As to `BrC1CCCCCCC1Br` (stereo not given), the T/C was 96 % of control (endpoint: mean survival time, dose: 25.0 mg/kg/injection, schedule: Q01DX009 (ip), vehicle: saline); 94 % of control (endpoint: mean survival time, dose: 50.0 mg/kg/injection, schedule: Q01DX009 (ip), vehicle: saline); 93 % of control (endpoint: mean survival time, dose: 100.0 mg/kg/injection, schedule: Q01DX009 (ip), vehicle: saline).
Take `Cc1cccnc1-n1c(N)cc(=O)[nH]c1=S`: the T/C is 97 % of control (endpoint: mean survival time, dose: 100.0 mg/kg/injection, schedule: Q04DX003 (ip), vehicle: saline with Tween-80); 101 % of control (endpoint: mean survival time, dose: 200.0 mg/kg/injection, schedule: Q04DX003 (ip), vehicle: saline with Tween-80); 100 % of control (endpoint: mean survival time, dose: 400.0 mg/kg/injection, schedule: Q04DX003 (ip), vehicle: saline with Tween-80).
Take `COc1ccc2c(c1)CCN=C2CCN1C(=O)CCC1=O`: the T/C was 101 % of control under setting [4] and 98 % of control under setting [5].
With `CCCCCCCCCCCCCCCC(=O)NCC[N+](C)(C)C`, the T/C by setting is: under setting [6], 107 % of control; under setting [7], 104 % of control; (endpoint: mean survival time, dose: 300.0 mg/kg/injection, schedule: Q01DX001 (ip), vehicle: saline) 104 % of control.
Turning to `O=[N+]([O-])O`, the T/C was 86 % of control (endpoint: mean survival time, dose: 50.0 mg/kg/injection, schedule: Q01DX009 (ip), vehicle: saline with Tween-80) and 86 % of control (endpoint: mean survival time, dose: 100.0 mg/kg/injection, schedule: Q01DX009 (ip), vehicle: saline with Tween-80).
For the compound `CCOC(=O)C(F)(C(=O)OCC)[N+](=O)[O-]`, the T/C reads like this: (endpoint: mean survival time, dose: 50.0 mg/kg/injection, schedule: Q04DX003 (ip), vehicle: saline) 102 % of control; (endpoint: mean survival time, dose: 100.0 mg/kg/injection, schedule: Q01DX001 (ip), vehicle: saline) 101 % of control; under setting [4], 100 % of control; (endpoint: mean survival time, dose: 200.0 mg/kg/injection, schedule: Q01DX001 (ip), vehicle: saline) 104 % of control; under setting [5], 88 % of control.
`CSc1[nH]c2ncnc(Cl)c2c1C#N`: the T/C is, setting by setting: under setting [6], 100 % of control; under setting [7], 94 % of control.
Take `CC(=O)/C(=C\c1ccc(/C=C(\C(C)=O)C(=O)CCN(C)C)cc1)C(=O)CCN(C)C`: the T/C was 102 % of control (endpoint: median survival time, dose: 25.0 mg/kg/injection, schedule: Q01DX005 (ip), vehicle: saline with Tween-80); 102 % of control (endpoint: median survival time, dose: 50.0 mg/kg/injection, schedule: Q01DX005 (ip), vehicle: saline with Tween-80); 101 % of control (endpoint: median survival time, dose: 100.0 mg/kg/injection, schedule: Q01DX005 (ip), vehicle: saline with Tween-80); 98 % of control (endpoint: median survival time, dose: 200.0 mg/kg/injection, schedule: Q01DX005 (ip), vehicle: saline with Tween-80); 102 % of control (endpoint: median survival time, dose: 400.0 mg/kg/injection, schedule: Q01DX005 (ip), vehicle: saline with Tween-80).
Regarding `COc1ccc(C(=O)/C=C/c2ccc(N(C)C)cc2)cc1`, the T/C is 95 % of control under setting [6] and 93 % of control under setting [7].
As for `Nc1ccccc1CCCC(N)C(=O)O` (stereo not given), the T/C is, setting by setting: under setting [1], 97 % of control; under setting [2], 100 % of control; under setting [3], 93 % of control.
Regarding `O=c1[nH]cc(N=Cc2ccccc2F)c(=O)[nH]1.[Cl][Pt][Cl]`, the T/C runs as follows: (endpoint: mean survival time, dose: 3.13 mg/kg/injection, schedule: Q04DX003 (ip), vehicle: water) 97 % of control; (endpoint: mean survival time, dose: 6.25 mg/kg/injection, schedule: Q04DX003 (ip), vehicle: water) 96 % of control; (endpoint: mean survival time, dose: 12.5 mg/kg/injection, schedule: Q04DX003 (ip), vehicle: water) 97 % of control; (endpoint: mean survival time, dose: 25.0 mg/kg/injection, schedule: Q04DX003 (ip), vehicle: water) 100 % of control; (endpoint: mean survival time, dose: 50.0 mg/kg/injection, schedule: Q04DX003 (ip), vehicle: water) 97 % of control; (endpoint: mean survival time, dose: 100.0 mg/kg/injection, schedule: Q04DX003 (ip), vehicle: water) 91 % of control. Moreover, the T/C (endpoint: mean survival time, dose: 200.0 mg/kg/injection, schedule: Q04DX003 (ip), vehicle: water) was 100 % of control.
Turning to `Nc1c(/C=C/c2cc3cc(C4=NCCN4)ccc3o2)[nH]c2cc(C3=NCCN3)ccc12`, the T/C reads like this: (endpoint: median survival time, dose: 3.12 mg/kg/injection, schedule: Q01DX009 (ip), vehicle: Klucel (hydroxypropylcellulose) (HPC)) 124 % of control; (endpoint: median survival time, dose: 18.0 mg/kg/injection, schedule: Q01DX005 (ip), vehicle: Klucel (hydroxypropylcellulose) (HPC)) 178 % of control; (endpoint: median survival time, dose: 25.0 mg/kg/injection, schedule: Q01DX005 (ip), vehicle: Klucel (hydroxypropylcellulose) (HPC)) 160 % of control; (endpoint: median survival time, dose: 30.0 mg/kg/injection, schedule: Q01DX005 (ip), vehicle: Klucel (hydroxypropylcellulose) (HPC)) 297 % of control; (endpoint: median survival time, dose: 50.0 mg/kg/injection, schedule: Q01DX005 (ip), vehicle: Klucel (hydroxypropylcellulose) (HPC)) 171 % of control and 237 % of control.
In the case of `CCCCCCCCCCCCCCCCSc1cccc(C)c1`, the T/C was 95 % of control (endpoint: mean survival time, dose: 100.0 mg/kg/injection, schedule: Q04DX003 (ip), vehicle: Klucel (hydroxypropylcellulose) (HPC)); 92 % of control (endpoint: mean survival time, dose: 200.0 mg/kg/injection, schedule: Q04DX003 (ip), vehicle: Klucel (hydroxypropylcellulose) (HPC)); 98 % of control (endpoint: mean survival time, dose: 400.0 mg/kg/injection, schedule: Q04DX003 (ip), vehicle: Klucel (hydroxypropylcellulose) (HPC)).
Consider `C#CCN(Cc1ccc2nc(N)[nH]c(=O)c2c1)c1ccc(C(=O)NC(CCC(=O)O)C(=O)O)cc1` (stereo not given), for which the T/C runs as follows: (endpoint: median survival time, dose: 7.5 mg/kg/injection, schedule: Q01DX009 (ip), vehicle: sodium bicarbonate) 109 % of control; (endpoint: median survival time, dose: 15.0 mg/kg/injection, schedule: Q01DX009 (ip), vehicle: sodium bicarbonate) 105 % of control and 109 % of control; (endpoint: median survival time, dose: 25.0 mg/kg/injection, schedule: Q01DX005 (ip), vehicle: water) 108 % of control; (endpoint: median survival time, dose: 30.0 mg/kg/injection, schedule: Q01DX009 (ip), vehicle: sodium bicarbonate) 117 % of control and 109 % of control; (endpoint: median survival time, dose: 50.0 mg/kg/injection, schedule: Q01DX005 (ip), vehicle: water) 109 % of control; (endpoint: median survival time, dose: 86.4 mg/kg/injection, schedule: Q01DX005 (ip), vehicle: water) 121 % of control. Also, the T/C (endpoint: median survival time, dose: 120.0 mg/kg/injection, schedule: Q01DX009 (ip), vehicle: sodium bicarbonate) is 156 % of control and 185 % of control; the T/C (endpoint: median survival time, dose: 144.0 mg/kg/injection, schedule: Q01DX005 (ip), vehicle: water) was 162 % of control; the T/C (endpoint: median survival time, dose: 400.0 mg/kg/injection, schedule: Q01DX005 (ip), vehicle: water) is 161 % of control.
With `CCOc1ccccc1/C=C1\N=C(c2cc(OC)c(OC)c(OC)c2)OC1=O`, the T/C runs as follows: (endpoint: mean survival time, dose: 100.0 mg/kg/injection, schedule: Q04DX002 (ip), vehicle: saline with Tween-80) 106 % of control; (endpoint: mean survival time, dose: 200.0 mg/kg/injection, schedule: Q04DX002 (ip), vehicle: saline with Tween-80) 100 % of control; (endpoint: mean survival time, dose: 400.0 mg/kg/injection, schedule: Q04DX002 (ip), vehicle: saline with Tween-80) 95 % of control.
`[Cl][Pt+2][Cl].[NH-]C1CCCCC1[NH-]` (stereo not given): the T/C was 124 % of control (endpoint: mean survival time, dose: 0.39 mg/kg/injection, schedule: Q04DX003 (ip), vehicle: saline with Tween-80); 119 % of control and 124 % of control (endpoint: mean survival time, dose: 1.56 mg/kg/injection, schedule: Q04DX002 (ip), vehicle: saline); 100 % of control (endpoint: median survival time, dose: 20.0 mg/kg/injection, schedule: Q04DX003 (ip), vehicle: saline).
